In US8859596B2, “Compounds as cannabinoid receptor ligands” (priority 2008, dated 2014) one finds Ki data, which are given here for 19 molecules.

Read-outs that look alike come from different tables or passages of the source.

The target in one test is human CB2 receptors (Homo sapiens (Human), UniProt P34972). Put plainly: human CB2 radioligand binding assay ([3H]CP 55,940 competition). The method, then: (§1) The CB1 and CB2 radioligand binding assays described herein are utilized to ascertain the affinity of compounds of the present application for binding to CB2 relative to CB1 receptors.
human CB2 receptors, sequence (P34972 whole entry): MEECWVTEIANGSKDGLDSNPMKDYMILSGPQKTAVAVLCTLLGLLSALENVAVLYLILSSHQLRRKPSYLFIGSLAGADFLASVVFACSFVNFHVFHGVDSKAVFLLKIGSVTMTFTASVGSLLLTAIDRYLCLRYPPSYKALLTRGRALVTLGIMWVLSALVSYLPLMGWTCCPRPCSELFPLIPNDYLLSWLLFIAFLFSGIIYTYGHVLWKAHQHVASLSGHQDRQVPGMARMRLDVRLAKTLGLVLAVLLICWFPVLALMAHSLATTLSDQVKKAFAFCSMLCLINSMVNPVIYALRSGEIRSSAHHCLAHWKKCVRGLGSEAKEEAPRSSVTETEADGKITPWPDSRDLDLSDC
HEK293 cells stably expressing human CB2 receptors were grown until a confluent monolayer was formed. Briefly, the cells were harvested and homogenized in TE buffer (50 mM Tris-HCl, 1 mM MgCl2, and 1 mM EDTA) using a polytron for 2×10 second bursts in the presence of protease inhibitors, followed by centrifugation at 45,000×g for 20 minutes. The final membrane pellet was re-homogenized in storage buffer (50 mM Tris-HCl, 1 mM MgCl2, and 1 mM EDTA and 10% sucrose) and frozen at −78° C. until used. Saturation binding reactions were initiated by the addition of membrane preparation (protein concentration of 5 μg/well for human CB2) into wells of a deep well plate containing [^3H]CP 55,940 (120 Ci/mmol, a nonselective CB agonist commercially available from Tocris) in assay buffer (50 mM Tris, 2.5 mM EDTA, 5 mM MgCl2, and 0.5 mg/mL fatty acid free BSA, pH 7.4). After 90 min incubation at 30° C., binding reaction was terminated by the addition of 300 μL/well of cold assay buffer followed by rapid vacuum filtration through a UniFilter-96 GF/C filter plates (pre-soaked in 1 mg/mL BSA for 2 hours). The bound activity was counted in a TopCount using Microscint-20. Saturation experiments were conducted with twelve concentrations of [^3H]CP 55,940 ranging from 0.01 to 8 nM. Competition experiments were conducted with 0.5 nM [^3H]CP 55,940 and five concentrations (0.01 nM to 10 μM) of displacing ligands. The addition of 10 μM unlabeled CP 55,940 (Tocris, Ellisville, Mo.) was used to assess nonspecific binding.

The target in the next test is rat CB2 (Rattus norvegicus (Rat), UniProt Q9QZN9). Nature of the test: rat CB2 radioligand binding assay ([3H]CP 55,940 competition). The method, then:
as §1
HEK293 cells stably expressing rat CB2 receptors were grown until a confluent monolayer was formed. Briefly, the cells were harvested and homogenized in TE buffer (50 mM Tris-HCl, 1 mM MgCl2, and 1 mM EDTA) using a polytron for 2×10 second bursts in the presence of protease inhibitors, followed by centrifugation at 45,000×g for 20 minutes. The final membrane pellet was re-homogenized in storage buffer (50 mM Tris-HCl, 1 mM MgCl2, and 1 mM EDTA and 10% sucrose) and frozen at −78° C. until used. Saturation binding reactions were initiated by the addition of membrane preparation (protein concentration of 20 μg/well for rat CB2) into wells of a deep well plate containing [^3H]CP 55,940 (120 Ci/mmol, a nonselective CB agonist commercially available from Tocris) in assay buffer (50 mM Tris, 2.5 mM EDTA, 5 mM MgCl2, and 0.5 mg/mL fatty acid free BSA, pH 7.4). After 45 min incubation at 30° C., binding reaction was terminated by the addition of 300 μl/well of cold assay buffer followed by rapid vacuum filtration through a UniFilter-96 GF/C filter plates (pre-soaked in 1 mg/mL BSA for 2 hours). The bound activity was counted in a TopCount using Microscint-20. Saturation experiments were conducted with twelve concentrations of [^3H]CP 55,940 ranging from 0.01 to 8 nM. Competition experiments were conducted with 0.5 nM [^3H]CP 55,940 and five concentrations of displacing ligands selected from the range of 0.01 nM to […] addition of 10 μM unlabeled CP 55,940 (Tocris, Ellisville, Mo.) was used to assess nonspecific binding.

Where [1] appears, read: HEK293 membranes, 0.5 nM [3H]CP 55,940, read-out: human CB2 (Ki).
Where [2] appears, read: HEK293 membranes, 0.5 nM [3H]CP 55,940, read-out: rat CB2 (Ki).

rat CB2, sequence (Q9QZN9 whole entry): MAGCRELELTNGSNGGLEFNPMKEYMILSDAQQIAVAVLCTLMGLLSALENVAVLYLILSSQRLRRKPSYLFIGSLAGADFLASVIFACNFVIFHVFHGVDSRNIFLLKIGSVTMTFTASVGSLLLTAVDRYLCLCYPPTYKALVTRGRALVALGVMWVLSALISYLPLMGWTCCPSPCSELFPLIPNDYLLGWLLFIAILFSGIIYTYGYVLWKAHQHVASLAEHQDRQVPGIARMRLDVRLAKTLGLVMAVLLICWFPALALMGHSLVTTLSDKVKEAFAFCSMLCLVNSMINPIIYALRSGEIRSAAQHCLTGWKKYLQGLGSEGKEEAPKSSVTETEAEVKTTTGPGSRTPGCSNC

Take `CCCCn1nc(C(C)(C)C)s/c1=N\C(=O)c1ccc(C(F)(F)F)cc1ONC(C)(C)C` [Example 170, 2-[(tert-butylamino)oxy]-N-[(2Z)-3-butyl-5-tert-butyl-1,3,4-thiadiazol-2(3H)-ylidene]-4-(trifluoromethyl)benzamide]: the Ki (usually a measure of affinity in units of concentration, obtained from inhibition or displacement) on human CB2 receptors (setting [1]) came out at 127 nM; on rat CB2 (setting [2]), 6.3 nM.

For `CCCCn1nc(C(C)(C)C)s/c1=N\C(=O)c1cc(C(F)(F)F)ccc1ON=C(N)C(C)C` [Example 175, 2-({[1-amino-2-methylpropylidene]amino}oxy)-N-[(2Z)-3-butyl-5-tert-butyl-1,3,4-thiadiazol-2(3H)-ylidene]-5-(trifluoromethyl)benzamide], the Ki came out at 5.3 nM on human CB2 receptors (setting [1]) and 2.9 nM on rat CB2 (setting [2]).

For `CC(C)(C)NOc1ccc(C(F)(F)F)cc1C(=O)/N=c1\sc(C(C)(C)C)nn1CC1CC1` [Example 163, 2-[(tert-butylamino)oxy]-N-[(2Z)-5-tert-butyl-3-(cyclopropylmethyl)-1,3,4-thiadiazol-2(3H)-ylidene]-5-(trifluoromethyl)benzamide], the Ki was 16 nM at human CB2 receptors (setting [1]) and 3 nM at rat CB2 (setting [2]).

Consider `CCCCn1nc(C(C)(C)C)s/c1=N\C(=O)c1cc(C(F)(F)F)ccc1N(/N=C/c1cccc(C)n1)C(=O)OC(C)(C)C` [Example 205, tert-butyl (2E)-1-[2-({[(2Z)-3-butyl-5-tert-butyl-1,3,4-thiadiazol-2(3H)-ylidene]amino}carbonyl)-4-(trifluoromethyl)phenyl]-2-[(6-methylpyridin-2-yl)methylene]hydrazinecarboxylate], for which the Ki was 44 nM on human CB2 receptors and 43 nM at rat CB2.

As to `CCCCn1nc(C2(C)CC2)s/c1=N\C(=O)c1cc(C(F)(F)F)ccc1ONC(C)(C)C` [Example 145, 2-[(tert-butylamino)oxy]-N-[(2Z)-3-butyl-5-(1-methylcyclopropyl)-1,3,4-thiadiazol-2(3H)-ylidene]-5-(trifluoromethyl)benzamide], the Ki worked out at 16 nM at human CB2 receptors (setting [1]) and 2.5 nM at rat CB2 (setting [2]).

With `Cn1c(C(C)(C)C)c/c(=N\C(=O)c2cc(Cl)ccc2ONC(C)(C)C)n1C[C@H]1CCCO1` [Example 168, 2-[(tert-butylamino)oxy]-N-{(3E)-5-tert-butyl-1-methyl-2-[(2R)-tetrahydrofuran-2-ylmethyl]-1,2-dihydro-3H-pyrazol-3-ylidene}-5-chlorobenzamide], the values for the Ki on human CB2 receptors (setting [1]) and at rat CB2 (setting [2]) were 52 nM and 21 nM, respectively.

For `CCCCn1nc(C(C)(C)C)s/c1=N\C(=O)c1cc(C(F)(F)F)ccc1ON=C(N)c1ccccn1` [Example 196, 2-({[amino(pyridin-2-yl)methylene]amino}oxy)-N-[(2Z)-3-butyl-5-tert-butyl-1,3,4-thiadiazol-2(3H)-ylidene]-5-(trifluoromethyl)benzamide], the inhibition constant Ki at human CB2 receptors (setting [1]) came out at 18 nM; on rat CB2 (setting [2]), 4.1 nM.

Regarding `CCCCn1nc(C(C)(C)C)s/c1=N\C(=O)c1cc(C(F)(F)F)ccc1ON=C(C)N` [Example 185, 2-({[1-aminoethylidene]amino}oxy)-N-[(2Z)-3-butyl-5-tert-butyl-1,3,4-thiadiazol-2(3H)-ylidene]-5-(trifluoromethyl)benzamide], the Ki turned out to be 16 nM at human CB2 receptors (setting [1]) and 3.6 nM on rat CB2 (setting [2]).

`CCCCn1nc(C(C)(C)C)s/c1=N\C(=O)c1cc(C(F)(F)F)ccc1ON=C(N)c1ccc(F)cc1` [Example 182, 2-({[amino(4-fluorophenyl)methylene]amino}oxy)-N-[(2Z)-3-butyl-5-tert-butyl-1,3,4-thiadiazol-2(3H)-ylidene]-5-(trifluoromethyl)benzamide]: the values for the Ki at human CB2 receptors (setting [1]) and at rat CB2 (setting [2]) were 21 nM and 7 nM, respectively.

In the case of `CCCCn1/c(=N/C(=O)c2cc(C(F)(F)F)ccc2NNC(=O)c2ccncc2)cc(C(C)(C)C)n1C` [Example 200, N-[(3E)-2-butyl-5-tert-butyl-1-methyl-1,2-dihydro-3H-pyrazol-3-ylidene]-2-(2-isonicotinoylhydrazino)-5-(trifluoromethyl)benzamide], the Ki on human CB2 receptors (setting [1]) is 0.7 nM; at rat CB2 (setting [2]) it was 1.3 nM.

Turning to `CCCCn1/c(=N/C(=O)c2cc(C(F)(F)F)ccc2NNC(=O)c2cccnc2)cc(C(C)(C)C)n1C` [Example 199, N-[(3E)-2-butyl-5-tert-butyl-1-methyl-1,2-dihydro-3H-pyrazol-3-ylidene]-2-[2-(pyridin-3-ylcarbonyl)hydrazino]-5-(trifluoromethyl)benzamide], the inhibition constant Ki on human CB2 receptors (setting [1]) stood at 2.5 nM; on rat CB2 (setting [2]), 2.2 nM.

For the molecule `CCCCn1nc(C(C)(C)C)s/c1=N\C(=O)c1cc(C(F)(F)F)ccc1NNc1ccccn1` [Example 183, N-[(2Z)-3-butyl-5-tert-butyl-1,3,4-thiadiazol-2(3H)-ylidene]-2-(2-pyridin-2-ylhydrazino)-5-(trifluoromethyl)benzamide], the Ki came to 32 nM on human CB2 receptors (setting [1]) and 5.6 nM on rat CB2 (setting [2]).

Take `CCCCn1nc(C(C)(C)C)s/c1=N\C(=O)c1cc(Cl)ccc1ONC(C)(C)C` [Example 162, 2-[(tert-butylamino)oxy]-N-[(2Z)-3-butyl-5-tert-butyl-1,3,4-thiadiazol-2(3H)-ylidene]-5-chlorobenzamide]: the Ki is 8.5 nM at human CB2 receptors (setting [1]) and 0.6 nM on rat CB2 (setting [2]).

Turning to `CC(C)(C)NOc1ccc(C(F)(F)F)cc1C(=O)/N=c1\sc(C(C)(C)C)nn1CC1CCCCO1` (centres unmarked) [Example 147, 2-[(tert-butylamino)oxy]-N-[(2Z)-5-tert-butyl-3-(tetrahydro-2H-pyran-2-ylmethyl)-1,3,4-thiadiazol-2(3H)-ylidene]-5-(trifluoromethyl)benzamide], the values for the Ki on human CB2 receptors (setting [1]) and at rat CB2 (setting [2]) were 1.7 nM and 0.7 nM, respectively.

For the molecule `CCCCn1nc(C(C)(C)C)s/c1=N\C(=O)c1cc(C(F)(F)F)ccc1NNC(=O)c1cccnc1` [Example 197, N-[(2Z)-3-butyl-5-tert-butyl-1,3,4-thiadiazol-2(3H)-ylidene]-2-[2-(pyridin-3-ylcarbonyl)hydrazino]-5-(trifluoromethyl)benzamide], the Ki on human CB2 receptors (setting [1]) came out at 1.1 nM; on rat CB2 (setting [2]), 0.7 nM.

Regarding `CCCCn1nc(C(C)(C)C)s/c1=N\C(=O)c1cc(C(F)(F)F)ccc1ON=C(N)c1ccncc1` [Example 203, 2-({[amino(pyridin-4-yl)methylene]amino}oxy)-N-[(2Z)-3-butyl-5-tert-butyl-1,3,4-thiadiazol-2(3H)-ylidene]-5-(trifluoromethyl)benzamide], the Ki on human CB2 receptors (setting [1]) is 68 nM; on rat CB2 (setting [2]) it was 33 nM.

For `CCCCn1nc(C(C)(C)C)s/c1=N\C(=O)c1cc(C(F)(F)F)ccc1NNC(=O)C(C)(C)C` [Example 193, N-[(2Z)-3-butyl-5-tert-butyl-1,3,4-thiadiazol-2(3H)-ylidene]-2-[2-(2,2-dimethylpropanoyl)hydrazino]-5-(trifluoromethyl)benzamide], the values for the Ki at human CB2 receptors (setting [1]) and on rat CB2 (setting [2]) were 0.4 nM and 0.5 nM, respectively.

In the case of `CCCCn1nc(C(C)(C)C)s/c1=N\C(=O)c1cc(C(F)(F)F)ccc1ON=C1CCCC1` [Example 190, N-[(2Z)-3-butyl-5-tert-butyl-1,3,4-thiadiazol-2(3H)-ylidene]-2-[(cyclopentylideneamino)oxy]-5-(trifluoromethyl)benzamide], the Ki on human CB2 receptors (setting [1]) worked out at 1.7 nM; at rat CB2 (setting [2]) it was 3.2 nM.

Regarding `CCCCn1cc(C(C)(C)C)cc/c1=N\C(=O)c1cc(C(F)(F)F)ccc1ONC(C)(C)C` [Example 160, 2-[(tert-butylamino)oxy]-N-[(2E)-1-butyl-5-tert-butylpyridin-2(1H)-ylidene]-5-(trifluoromethyl)benzamide], the Ki on human CB2 receptors (setting [1]) turned out to be 88 nM; at rat CB2 (setting [2]) it was 5.9 nM.
